PMC9822352, “Design, Synthesis and Evaluation of New Multifunctional Benzothiazoles as Photoprotective, Antioxidant and Antiproliferative Agents” (Molecules, 2022)
“And” between values parts separate entries of the source, which are not always exact repeats. Equal entries are not always repeated.

Key:
[1] = FRAP (Ferric Reducing Antioxidant Power) assay; settings: Trolox standard, 37 °C 10 min, 593 nm; mean ± SEM
From the text: The FRAP (Ferric Reducing Antioxidant Power) test allows the measurement of the ability of antioxidants to reduce ferric ion to ferrous. This method represents one of the simplest, quickest and least expensive methods for the determination of reducing properties on oxidized species in vitro.
The FRAP test (Ferric Reducing Antioxidant Power) is based on a colorimetric reaction and evaluates the ability of a sample of reducing ferric ions to ferrous ion while complexed with TPTZ (2,4,6-trispyridil-s-triazine). The FRAP solution was prepared from 0.1 M acetate buffer (pH 3.6), 10 mmol/L of TPTZ in 40 mM HCl, and 20 mM solution of FeCl3, with a 10:1:1 ratio, as described. Then, 1.9 mL of this solution was incubated with 0.1 mL of the sample solution at 37 °C for 10 min. The absorbance was read with a UV-Vis spectrophotometer at a 593 nm wavelength, relative to the maximum peak of absorbance of Fe^2+-TPTZ complex. Trolox® was used as a standard and the results are expressed as µmolTE/g.

[2] = In vitro filtering parameters of O/W sunscreen formulation containing 3% compound (modified Diffey-Robson, PMMA plates); settings: 3% in formulation, before irradiation
From the text: All synthesized compounds were formulated at 3% and their photoprotective efficacy, determined by spectrophotometric measurements using the modified Diffey-Robson method, was compared with that of the lead compound PBSA (used at 3% in the same formulation) and using the base without active as a control (Table 2).
The synthesized compounds were incorporated at a concentration of 3% in a typical oil-in-water sunscreen formulation, to evaluate the filtering parameters, and have the following ingredient composition:
INCI (International Nomenclature Cosmetic Ingredients): aqua, glycerin, Euxyl PE 9010, xanthan gum, Tribehenin PEG-20 Esters, cetearyl alcohol, dicaprylyl carbonate, PPG-26-Buteth-26 (and) PEG-40 Hydrogenated Castor Oil (and) water, C12-C15 Alkyl Benzoate, and Sodium hydroxide (sol. 10%).
As previously reported the protocol indicates to spread 32.5 mg of each formulation on 25 cm^2 PMMA plates with the fingers. Each formulation was tested in triplicate, and five measurements were recorded for each dish, following a 15–30 min incubation in the dark at room temperature. UV transmittance data was recorded using a UV-VIS spectrophotometer in the range 290–400 nm. The blank plate, SPF, UVA-PF and critical wavelength were obtained by SPF Calculator software (version 2.1), Shimadzu, Milan, Italy).

HaCat cell line = assay: Pro-apoptotic activity (Annexin V method), HaCat; format: cell-based, human; settings: 24 h
Experimental: (§1) The Annexin V assay was conducted at two concentrations approaching IC50 values toward the selected cell lines reported in Table 3. The complete set of data is reported in Table 4, while representative data from the analysis of the corresponding Muse Analyzer plots are shown in Figure 2.
(§2) Apoptosis assays were performed with a Muse® Cell Analyzer instrument (Merck Millipore, Burlington, MA, USA) and the kit on Colo-38 and HaCat cell lines according to the manufacturer’s protocol. Cells were treated and exposed to the compounds for 24 h. This procedure is based on the detection of PS (PhosphatidylSerine) exposed on the external membrane of apoptotic cells by Annexin V. Four populations of cells can be distinguished using this assay: live, early apoptotic, late apoptotic and dead cells. The MUSE cell analyzer can discriminate “early” from “late” apoptosis since “early apoptotic cells” are Annexin V-positive and 7-AAD-negative, while “late apoptotic cells” are positive to both Annexin V and 7-AAD (7-aminoactinomycin D). The DNA intercalating molecule 7AAD (7-aminoactinomycin D) is used as an indicator of cell membrane integrity, since it binds DNA only in cells undergoing late apoptosis/death stage, when the membrane integrity is lost. Muse Annexin V and Dead Cell reagent were used to dilute the cells (1:1). After 20 min of incubation between cell samples and the kit at room temperature in the dark, the samples were analyzed using 0.01% Triton X-100 as positive control. The data were acquired and recorded using the Annexin V and Dead Cell software module (Millipore, Billerica, MA, USA).

Colo-38 cell line = assay: Pro-apoptotic activity (Annexin V method), Colo-38; format: cell-based, human; settings: for Dead (%) / Early Apoptosis (%) / Late Apoptosis (%): 24 h; for total apoptosis: Colo-38, 24 h, concentrations approaching IC50
Experimental: as §1, §2

Row | SMILES | FRAP [1] | SPF [2] | UVA/UVB [2] | UVAPF0 [2] | λc [2] [nm] | Dead (%) (Colo-38 cell line; Colo-38, 10 µM) | Early Apoptosis (%) (Colo-38 cell line; Colo-38, 10 µM) | Late Apoptosis (%) (Colo-38 cell line; Colo-38, 10 µM) | Dead (%) (Colo-38 cell line; Colo-38, 50 µM) | Early Apoptosis (%) (Colo-38 cell line; Colo-38, 50 µM) | total apoptosis (Colo-38 cell line) | Dead (%) (Colo-38 cell line; Colo-38, 5 µM) | Early Apoptosis (%) (Colo-38 cell line; Colo-38, 5 µM) | Late Apoptosis (%) (Colo-38 cell line; Colo-38, 5 µM) | further results
1 | COc1ccc(/C=C/C(=O)Nc2nc3ccccc3s2)cc1O [BZTcin5, (E)-N-(benzo[d]thiazol-2-yl)-3-(3-hydroxy-4-methoxyphenyl)acrylamide] | 2043.33 ± 12.03 µmolTE/g | 3.84 | 1.11 | 3.61 | 378 | 3.75 | 1.80 | 21.40 | 3.50 | 1.40 | > 20% |  |  |  | Dead (%) (HaCat cell line; 50 µM): 0.19%; Early Apoptosis (%) (HaCat cell line; 50 µM): 2.29%; Late Apoptosis (%) (HaCat cell line; 50 µM): 3.73%; Dead (%) (HaCat cell line; 100 µM): 0.20%; Early Apoptosis (%) (HaCat cell line; 100 µM): 1.84%; Late Apoptosis (%) (HaCat cell line; 100 µM): 5.00%; Late Apoptosis (%) (Colo-38 cell line; Colo-38, 50 µM): 16.25%
2 | O=C(/C=C/c1ccc(O)cc1)Nc1nc2ccccc2s1 [BZTcin2, (E)-N-(benzo[d]thiazol-2-yl)-3-(4-hydroxyphenyl)acrylamide] | 43.73 ± 2.83 µmolTE/g | 12.26 | 1.49 | 11.79 | 380 |  |  |  | 4.45 | 1.85 | over 30% | 2.05 | 1.70 | 16.90 | 
3 | O=C(N/N=C/c1ccc(O)cc1)c1nc2ccccc2s1 [BZTidr2, (E)-N′-(4-hydroxybenzylidene)benzo[d]thiazole-2-carbohydrazide] | 1160.24 ± 17.34 µmolTE/g | 1.85 | 1.09 | 1.96 | 386 |  |  |  |  |  |  |  |  |  | 
4 | O=C(/C=C/c1ccc(O)c(O)c1)Nc1nc2ccccc2s1 [BZTcin4, (E)-N-(benzo[d]thiazol-2-yl)-3-(3,4-dihydroxyphenyl)acrylamide] | 4583.10 µmolTE/g and 4583.10 ± 22.68 µmolTE/g | 9.70 | 1.39 | 11.40 | 380 | 1.35 | 3.20 | 8.00 |  |  | does not induce apoptosis at any of the concentrations tested | 1.00 | 3.85 | 8.50 | Dead (%) (HaCat cell line; 5 µM): 0.41%; Early Apoptosis (%) (HaCat cell line; 5 µM): 1.83%; Late Apoptosis (%) (HaCat cell line; 5 µM): 3.05%; Dead (%) (HaCat cell line; 10 µM): 1.96%; Early Apoptosis (%) (HaCat cell line; 10 µM): 1.13%; Late Apoptosis (%) (HaCat cell line; 10 µM): 15.56%
